Results on four compounds are retold here after PMC5686453 (ACS chemical neuroscience, 2017).

The test system of one data set is formalin test. Conditions: only partially effective; cited from earlier work.
Data set [1] deals with rat models of inflammatory and neuropathic pain. Conditions: cited from earlier work.
The target of the next data set is α1β3γ2L GABAA receptor (Rattus norvegicus, UniProt P18508+P62813, INS375LLRMFSFK). Type of data set: cell-based. Particulars: for peak response (potentiation of the response to GABA): α1β3γ2L, percentage of the response to GABA alone.
The target of a further data set is α2β3γ2L GABAA receptor (UniProt P18508+P47869, INS375LLRMFSFK). Type of data set: cell-based, human. Particulars: for peak response (potentiation of the response to GABA): α2β3γ2L, percentage of the response to GABA alone.
A further data set deals with α3β3γ2L GABAA receptor (Rattus norvegicus, UniProt P18508+P20236, INS375LLRMFSFK). Type of data set: cell-based. Conditions: for peak response (potentiation of the response to GABA): α3β3γ2L, percentage of the response to GABA alone.
Data set [2] deals with α4-containing GABAA receptors (with β3, γ2L) (Rattus norvegicus, UniProt P18508+P28471, INS375LLRMFSFK). Type of data set: cell-based. Particulars: 1 μM modulator, 0.3 μM GABA.
Data set [3] deals with α5-containing GABAA receptors (with β3, γ2L) (Rattus norvegicus, UniProt P18508+P19969, INS375LLRMFSFK). Type of data set: cell-based. Conditions: 0.1 μM modulator, 0.3 μM GABA.
Data set [4] addresses α6-containing GABAA receptors (with β3, γ2L) (Rattus norvegicus, UniProt P18508+P30191, INS375LLRMFSFK). Type of data set: cell-based. Conditions: 1 μM modulator, 0.1 μM GABA.
Data set [5] relates to 0.6% acetic acid-induced writhing in mice. Kind of data set: 0.6% acetic acid-induced writhing. Type of data set: in vivo, ICR mice. Conditions: s.c. pretreatment, 25 min observation. (In general: An intraperitoneal irritant provokes the stretching counted in writhing tests.)
In data set [6] the test system is 0.32% lactic acid-induced writhing in mice. Type of data set: in vivo, ICR mice. Particulars: s.c. pretreatment, 25 min observation.
The test system of data set [7] is acetic acid-depressed nesting in mice. Kind of data set: Acetic acid-depressed nesting. Type of data set: in vivo, ICR mice. Conditions: 60 min nesting period.
Data set [8] has as its system acetic acid-depressed locomotion in mice. The experiment in a line: Acetic acid-depressed locomotor activity. Particulars: s.c. pretreatment, 0.6% acetic acid. Type of data set: in vivo, ICR mice.
Data set [9] relates to lactic acid-depressed locomotion in mice. Kind of data set: Lactic acid-depressed locomotor activity. Set-up: species or system ICR mice. Conditions: mouse, in vivo.
The subject of the next data set is mice. Kind of data set: Pilot study of a larger dose. Type of data set: in vivo. Particulars: 32 mg/kg.
Data set [10] has as its system spontaneous locomotor activity in naïve mice. Kind of data set: Baseline locomotor activity without acid. Type of data set: in vivo, ICR mice. Particulars: doses used for the pain studies.

Entries after “also recorded” stand apart in the source; their conditions may differ.

In the case of `CC(C)(O)c1ccc2c(c1)ncn2-c1cccc(-c2ccccc2C#N)c1` [NS11394, 3′-[5-(1-hydroxy-1-methyl-ethyl)-benzoimidazol-1-yl]-biphenyl-2-carbonitrile], the “reduction in the formalin test” value in the data set on formalin test is 33%. The “antinociceptive effects in rat models of inflammatory and neuropathic pain” value in data set [1] is recorded as “significant antinociceptive effects”. The “sedation at the antinociceptive doses” value in [1] (rat, same doses) is listed as “does not produce sedation”.

Turning to `C#Cc1ccc2c(c1)C(c1ccccn1)=NCc1c(-c3cnco3)ncn1-2` [KRM-II-81, 5-(8-ethynyl-6-(pyridin-2-yl)-4H-benzo[f]imidazo[1,5-a][1,4]diazepin-3-yl) oxazole], the EC50 turned out to be 1730 ± 690 nM at α1β3γ2L GABAA receptor, 102 ± 28.5 nM at α2β3γ2L GABAA receptor and 60.9 ± 11.6 nM on α3β3γ2L GABAA receptor. The “peak response (potentiation of the response to GABA)” value was 316.9 ± 38.6% at α1β3γ2L GABAA receptor, 350.1 ± 21.5% on α2β3γ2L GABAA receptor and 352.2 ± 38.0% at α3β3γ2L GABAA receptor. Also, on α2β3γ2L GABAA receptor (from EC50 values), the “selectivity on α2 subtype over α1 subtype GABAA receptors” value was found to be 17 fold. Moreover, at α3β3γ2L GABAA receptor (from EC50 values), the “selectivity on α3 subtype over α1 subtype GABAA receptors” value came out at 28 fold. Besides, the “modulation of GABA response at α4-containing receptors (in words)” value in [2] is given as “negligible efficacy”. In data set [3], the “modulation of GABA response at α5-containing receptors (in words)” value is on record as “much less sensitive; also recorded: negligible efficacy”. In addition, the “modulation of GABA response at α6-containing receptors (in words)” value in [4] is reported as “negligible efficacy”. Besides, in data set [5], the “effect on 0.6% acetic acid-induced writhing (in words)” value is on record as “dose-dependently decreased”. Moreover, the “effect on […] lactic acid-induced writhing (in words)” value in [6] is on record as “decreased”. The “effect on the decrease in cleared zones by acetic acid (nesting, in words)” value in [7] was “failed to significantly attenuate”. For the same compound, in [8], the “effect on locomotor activity of acetic acid-treated mice (in words)” value is “failed to restore”. Further, the “effect on locomotor activity of lactic acid-treated mice (in words)” value in data set [9] is “failed to restore”. Besides, in the data set with mice, the “sedation at a larger dose” value is “marked sedation”.

As to `C#Cc1ccc2c(c1)C(c1ccccc1F)=NCc1c(-c3cnco3)ncn1-2` [KRM-II-18B, 5-(8-ethynyl-6-(2-fluorophenyl)-4H-benzo[f]imidazo[1,5-a][1,4]diazepin-3-yl) oxazole], the 50% effective concentration (EC50) on α1β3γ2L GABAA receptor came out at 739 ± 252 nM; at α2β3γ2L GABAA receptor, 261 ± 116 nM; at α3β3γ2L GABAA receptor, 169 ± 39.8 nM. Besides, at α1β3γ2L GABAA receptor (in words), the “selectivity among the three subtypes (α1, α2, α3)” value is “no significant selectivity”. Also, the “peak response (potentiation of the response to GABA)” value on α1β3γ2L GABAA receptor was 410.6 ± 26.3%; at α2β3γ2L GABAA receptor, 320.0 ± 14.3%; on α3β3γ2L GABAA receptor it was 383.0 ± 33.2%. The “modulation of GABA response at α5-containing receptors (in words)” value in [3] is listed as “significant efficacy”. In addition, the “effect on 0.6% acetic acid-induced writhing (in words)” value in [5] is recorded as “dose-dependently decreased”. In addition, the “effect on […] lactic acid-induced writhing (in words)” value in data set [6] was “decreased”. Further, in [7], the “effect on the decrease in cleared zones by acetic acid (nesting, in words)” value was “failed to significantly attenuate”. Besides, in [8], the “effect on locomotor activity of acetic acid-treated mice (in words)” value was “failed to restore”. In addition, in data set [9], the “effect on locomotor activity of lactic acid-treated mice (in words)” value was “failed to restore”. Also, in the data set on mice, the “sedation at a larger dose” value was “marked sedation”.

Consider `CC(=O)Nc1ccc(O)cc1` [acetaminophen, reference compound], for which the “effect on locomotor activity of acetic acid-treated mice (in words)” value in data set [8] is “dose-dependently increased”. The “effect on locomotor activity of lactic acid-treated mice (in words)” value in data set [9] is on record as “dose-dependently increased”. In [10], the “effect on locomotor / spontaneous activity without acid” value is “did not significantly change”.

As usually defined, the EC50 is the concentration needed to bring the measured effect to its halfway point. A low value points to an effect from little substance.
